According to PubChem BioAssay AID248 (DTP/NCI, 2004):
Several values for one entry are separate records, joined by “and”; a condition that tells them apart may be missing. Equal entries are not always repeated. Inconclusive results and toxic doses are left out. Cut-off read from the data, not from the text of the source: active = T/C of 150% or more; inactive = T/C below 125%.

Test system: L1210 leukemia ip in BDF1 mice, survival T/C
Assay: NCI In Vivo Anticancer Drug Screen. Data for tumor model L1210 Leukemia (intraperitoneal) in B6D2F1 (BDF1) mice
Details: endpoint: mean survival time, higher = longer survival
Summary of the method: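 Tumor was transplanted into mice, which were then dosed with test compound or vehicle alone. Survival was recorded for each group, and the treated figure was expressed relative to the control figure.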

[1] = dose: 100.0 mg/kg/injection, schedule: Q01DX009 (ip), vehicle: Klucel (hydroxypropylcellulose) (HPC)
[2] = dose: 200.0 mg/kg/injection, schedule: Q01DX009 (ip), vehicle: Klucel (hydroxypropylcellulose) (HPC)
[3] = dose: 100.0 mg/kg/injection, schedule: Q01DX001 (ip), vehicle: carboxymethylcellulose (CMC)
[4] = dose: 200.0 mg/kg/injection, schedule: Q01DX001 (ip), vehicle: carboxymethylcellulose (CMC)
[5] = dose: 400.0 mg/kg/injection, schedule: Q01DX001 (ip), vehicle: carboxymethylcellulose (CMC)
[6] = dose: 100.0 mg/kg/injection, schedule: Q04DX002 (ip), vehicle: saline with Tween-80
[7] = dose: 200.0 mg/kg/injection, schedule: Q04DX002 (ip), vehicle: saline with Tween-80
[8] = dose: 400.0 mg/kg/injection, schedule: Q04DX002 (ip), vehicle: saline with Tween-80
[9] = dose: 100.0 mg/kg/injection, schedule: Q01DX001 (ip), vehicle: saline
[10] = dose: 200.0 mg/kg/injection, schedule: Q01DX001 (ip), vehicle: saline
[11] = dose: 12.5 mg/kg/injection, schedule: Q04DX003 (ip), vehicle: saline
[12] = dose: 100.0 mg/kg/injection, schedule: Q04DX003 (ip), vehicle: Klucel (hydroxypropylcellulose) (HPC)
[13] = dose: 200.0 mg/kg/injection, schedule: Q04DX003 (ip), vehicle: Klucel (hydroxypropylcellulose) (HPC)
[14] = dose: 400.0 mg/kg/injection, schedule: Q01DX009 (ip), vehicle: Klucel (hydroxypropylcellulose) (HPC)
[15] = dose: 400.0 mg/kg/injection, schedule: Q04DX003 (ip), vehicle: Klucel (hydroxypropylcellulose) (HPC)
[16] = dose: 100.0 mg/kg/injection, schedule: Q01DX009 (ip), vehicle: saline
[17] = dose: 200.0 mg/kg/injection, schedule: Q01DX009 (ip), vehicle: saline
[18] = dose: 25.0 mg/kg/injection, schedule: Q01DX009 (ip), vehicle: saline
[19] = dose: 50.0 mg/kg/injection, schedule: Q01DX009 (ip), vehicle: saline

Measured: T/C

N=c1ncn(Cc2ccccc2)c2nc[nH]c12
inactive: [1] 91 % of control | [2] 101 % of control

O=C1CC2=CCCCc3cccc1c32
inactive: [3] 93 % of control | [4] 93 % of control | [5] 93 % of control

CC1Oc2ccccc2NC1=O (stereo not drawn)
inactive: [6] 102 % of control | [7] 106 % of control | [8] 98 % of control

CCCN1CCN(CCCO)CC1C (stereo not drawn)
inactive: [9] 103 % of control | [10] 105 % of control | dose: 400.0 mg/kg/injection, schedule: Q01DX001 (ip), vehicle: saline 103 % of control

C[C@H](CCC[C@H](C)OS(=O)(=O)c1ccccc1)OS(=O)(=O)c1ccccc1
inactive: dose: 25.0 mg/kg/injection, schedule: Q01DX009 (ip), vehicle: saline with Tween-80 104 % of control and 112 % of control | dose: 50.0 mg/kg/injection, schedule: Q01DX009 (ip), vehicle: saline with Tween-80 107 % of control and 112 % of control (2×) | dose: 100.0 mg/kg/injection, schedule: Q01DX009 (ip), vehicle: saline with Tween-80 109 % of control | dose: 200.0 mg/kg/injection, schedule: Q01DX009 (ip), vehicle: saline with Tween-80 112 % of control (2×) and 117 % of control

CCCC[N+](C)(CCCC)CC(O)c1cc(-c2ccc(Cl)cc2)nc2c(Cl)cc(Cl)cc12 (stereo not drawn)
inactive: [11] 102 % of control

CC12CCC3C(CCC4CC(O)CCC43C)C1CCCC2=O (stereo not drawn)
inactive: dose: 75.0 mg/kg/injection, schedule: Q04DX003 (sc), vehicle: steriod suspending solution 102 % of control | dose: 150.0 mg/kg/injection, schedule: Q04DX003 (sc), vehicle: steriod suspending solution 93 % of control | dose: 300.0 mg/kg/injection, schedule: Q04DX003 (sc), vehicle: steriod suspending solution 91 % of control

Cc1c2ccc3ccccc3c2cc2cccc(C#N)c12
inactive: dose: 100.0 mg/kg/injection, schedule: Q01DX001 (ip), vehicle: Klucel (hydroxypropylcellulose) (HPC) 106 % of control | dose: 200.0 mg/kg/injection, schedule: Q01DX001 (ip), vehicle: Klucel (hydroxypropylcellulose) (HPC) 98 % of control | dose: 400.0 mg/kg/injection, schedule: Q01DX001 (ip), vehicle: Klucel (hydroxypropylcellulose) (HPC) 98 % of control

CCCCn1c(=S)[nH]c2ccccc2c1=O
inactive: [1] 100 % of control | [12] 98 % of control | [2] 94 % of control | [13] 95 % of control | [14] 96 % of control | [15] 92 % of control

CSc1ncnc2c1ncn2NC(C)=O
inactive: dose: 88.0 mg/kg/injection, schedule: Q01DX009 (ip), vehicle: other 107 % of control | dose: 100.0 mg/kg/injection, schedule: Q01DX001 (ip), vehicle: other 98 % of control | dose: 134.0 mg/kg/injection, schedule: Q01DX009 (ip), vehicle: other 104 % of control | dose: 200.0 mg/kg/injection, schedule: Q01DX001 (ip), vehicle: other 104 % of control | dose: 200.0 mg/kg/injection, schedule: Q01DX009 (ip), vehicle: other 113 % of control | dose: 300.0 mg/kg/injection, schedule: Q01DX009 (ip), vehicle: other 120 % of control | dose: 400.0 mg/kg/injection, schedule: Q01DX001 (ip), vehicle: other 112 % of control

Nc1nc(N)c2nc3c(nc2n1)CN(c1ccc(C(=O)O)cc1)C3=O
inactive: [16] 104 % of control | [17] 89 % of control

Cn1c(=O)c2c(nc(CCC3CCCC3)n2C)n(C)c1=O
inactive: dose: 50.0 mg/kg/injection, schedule: Q01DX001 (ip), vehicle: carboxymethylcellulose (CMC) 92 % of control | [3] 97 % of control | [4] 90 % of control | [5] 97 % of control

CN1CCC(CO)CC1
inactive: [9] 94 % of control | [10] 100 % of control

CCOC(=O)/C(C#N)=C(\CCc1ccccc1)CC(C)C
inactive: [6] 101 % of control | [7] 101 % of control | [8] 104 % of control

CCCCCCCCCCCC[n+]1ccc(C(N)=O)cc1
inactive: dose: 12.5 mg/kg/injection, schedule: Q01DX001 (ip), vehicle: saline 91 % of control | [11] 96 % of control | dose: 25.0 mg/kg/injection, schedule: Q01DX001 (ip), vehicle: saline 100 % of control | dose: 25.0 mg/kg/injection, schedule: Q04DX003 (ip), vehicle: saline 87 % of control | dose: 50.0 mg/kg/injection, schedule: Q01DX001 (ip), vehicle: saline 86 % of control | dose: 50.0 mg/kg/injection, schedule: Q04DX003 (ip), vehicle: saline 94 % of control

CC(C)NCCC(=O)c1ccc(OCc2ccccc2)cc1
inactive: [18] 106 % of control | [19] 110 % of control | [16] 106 % of control and 119 % of control

Cn1c(N)c(N=Nc2ccc(S(=O)(=O)Nc3ccccn3)cc2)c(=O)n(C)c1=O
inactive: [3] 98 % of control | [4] 93 % of control | [5] 93 % of control

C/C(=C1/SC(=S)NC1=O)c1ccccc1
inactive: [9] 102 % of control

Nc1nc(N)c(N)c(=O)[nH]1
inactive: dose: 25.0 mg/kg/injection, schedule: Q04DX003 (ip), vehicle: Klucel (hydroxypropylcellulose) (HPC) 103 % of control | dose: 50.0 mg/kg/injection, schedule: Q04DX003 (ip), vehicle: Klucel (hydroxypropylcellulose) (HPC) 100 % of control | [16] 109 % of control | [12] 94 % of control and 100 % of control | dose: 100.0 mg/kg/injection, schedule: Q04DX003 (ip), vehicle: saline 107 % of control | [17] 101 % of control | dose: 200.0 mg/kg/injection, schedule: Q04DX003 (ip), vehicle: saline 105 % of control | dose: 400.0 mg/kg/injection, schedule: Q01DX009 (ip), vehicle: saline 101 % of control | dose: 400.0 mg/kg/injection, schedule: Q04DX003 (ip), vehicle: saline 104 % of control

O=C1c2ccccc2C(=O)N1N(c1ccccc1)c1ccccc1
inactive: dose: 50.0 mg/kg/injection, schedule: Q01DX009 (ip), vehicle: Klucel (hydroxypropylcellulose) (HPC) 108 % of control | [12] 95 % of control | [2] 106 % of control | [13] 97 % of control | [14] 103 % of control | [15] 109 % of control

C[Se]c1ncnc2c1c(C#N)cn2C1OC(CO)C(O)C1O (stereo not drawn)
inactive: dose: 12.5 mg/kg/injection, schedule: Q01DX005 (ip), vehicle: saline 123 % of control | dose: 12.5 mg/kg/injection, schedule: Q01DX009 (ip), vehicle: saline 120 % of control | [18] 124 % of control | dose: 50.0 mg/kg/injection, schedule: Q01DX005 (ip), vehicle: saline 120 % of control | [19] 94 % of control

O=c1c2ccccc2c2c3c1cccc3c1cccc3c(=O)c4ccccc4c2c31
inactive: dose: 100.0 mg/kg/injection, schedule: Q04DX003 (ip), vehicle: saline with Tween-80 98 % of control | dose: 200.0 mg/kg/injection, schedule: Q04DX003 (ip), vehicle: saline with Tween-80 101 % of control | dose: 400.0 mg/kg/injection, schedule: Q04DX003 (ip), vehicle: saline with Tween-80 104 % of control

Oc1ccccc1N=Cc1ccc(C=Nc2ccccc2O)cc1
inactive: dose: 100.0 mg/kg/injection, schedule: Q01DX009 (ip), vehicle: gum acacia 101 % of control | dose: 100.0 mg/kg/injection, schedule: Q04DX003 (ip), vehicle: gum acacia 100 % of control | dose: 200.0 mg/kg/injection, schedule: Q01DX009 (ip), vehicle: gum acacia 97 % of control | dose: 200.0 mg/kg/injection, schedule: Q04DX003 (ip), vehicle: gum acacia 98 % of control | dose: 400.0 mg/kg/injection, schedule: Q01DX009 (ip), vehicle: gum acacia 107 % of control | dose: 400.0 mg/kg/injection, schedule: Q04DX003 (ip), vehicle: gum acacia 94 % of control
